Experimental data from patent publication US20220153732A1, “PROTEIN SECRETION INHIBITORS” (KEZAR LIFE SCIENCES, priority 2019, published 2022).
Like-named read-outs stand apart in the source and are kept apart here.

Tests used:
Type in all cases: cell-based
[1] = system: HER3-ss+4aa/Gaussia Luciferase; assay: Dox-Induced Her3-ss-Gluc Assay; settings: 24 hr doxycycline induction, 293FRT/TO cells, Gaussia luciferase signal; read-out: 24 hr Dox Inducible Her3(ss + 4)Gluc 293FRT/TO: Mean IC50
In short: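 Stable T-REx cell line carrying a doxycycline-regulated HER3-ss+4aa/Gaussia luciferase insert, plated the day before assay. Compound dilutions in DMSO/media with doxycycline added, then incubated at 37° C., 5% CO2. Stereoisomer mixtures tested where stereochemistry is not drawn.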

[2] = system: TNFα-FL/Gaussia Luciferase; assay: Dox Induced TNFα-FL-Gluc Assay; settings: 24 hr doxycycline induction, 293FRT/TO cells, Gaussia luciferase signal; read-out: 24 hr Dox Inducible TNFaFLGluc 293FRT/TO: Mean IC50
In short: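 A stable T-REx cell line carrying doxycycline-inducible TNFα-FL/Gaussia luciferase was plated the day before assay. Compound dilutions in DMSO/media containing doxycycline were then added and incubated at 37° C, 5% CO2.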

[3] = system: human multiple myeloma cell line U266B1; assay: U266 Cell Viability Assay; settings: read-out: 48 hr U266 Viability Celltiter-Glo: Mean EC50
In short: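 U266B1 myeloma cells treated with compound dilutions in DMSO/media for 48 h at 37 °C, 5% CO2. Viability read by CellTiter-Glo luminescence. Stereochemically undefined structures were tested as stereoisomer mixtures.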

[4] = system: human multiple myeloma cell line NCI-H929; assay: H929 Cell Viability Assay; settings: read-out: 48 hr H929 Viability Celltiter-Glo: Mean EC50
Method: Plates were incubated at 37° C., 5% CO2 for 48 hours. After 48 hours, Celltiter-Glo® (Promega) was added to each well and luciferase signal was quantified using Tecan Infinite M1000 Pro for cell viability determination.
For chemical structures that include one or more stereoisomers, but are illustrated without indicating stereochemistry, the assay data refers to a mixture of stereoisomers.

[5] = system: PD1-ss+10aa/Gaussia Luciferase; assay: Dox-Induced PD1-ss-Gluc Assay; settings: 24 hr doxycycline induction, 293FRT/TO cells, Gaussia luciferase signal; read-out: 24 hr Dox Inducible PD1ssGluc 293FRT/TO: Mean IC50
In short: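 Stable cell line carrying PD1-ss+10aa/Gaussia luciferase cDNA under T-REx (doxycycline-inducible) control, plated the day before assay. Compound dilutions in DMSO/media containing doxycycline added and incubated at 37° C, 5% CO2. Undefined stereocentres: data refer to stereoisomer mixtures.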

[6] = system: IL-2-FL/Gaussia Luciferase; assay: Dox Induced IL2-FL-Gluc Assay; settings: 24 hr doxycycline induction, 293FRT/TO cells, Gaussia luciferase signal; read-out: 24 hr Dox Inducible IL2FLGIuc 293FRT/TO: Mean IC50
In short: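 Stable T-REx cell line expressing doxycycline-inducible IL-2-FL/Gaussia luciferase cDNA, plated the day before assay. Compound dilutions in DMSO/media containing doxycycline added and incubated at 37° C., 5% CO2. Unspecified stereochemistry means data refer to a stereoisomer mixture.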

[7] = U-266, 48 hr, U266B1 cells, Celltiter-Glo
[8] = 48 hr, NCI-H929 cells, Celltiter-Glo

| SMILES | IC50 [1] [µM] | IC50 [2] [µM] | EC50 [3, 7] [µM] | EC50 [4, 8] [µM] | IC50 [5] [µM] | IC50 [6] [µM] | EC50 ([3]; U-266, 48 h) [µM] | EC50 ([4]; NCI-H929, 48 h) [µM] |
| --- | --- | --- | --- | --- | --- | --- | --- | --- |
| CO[C@H]1CC[C@@H](/C=C/c2csc(NC(=O)c3cccn3Cc3ccncc3)n2)CC1 [Compound A254, N-(4-(2-((1s,4s)-4-methoxycyclohexyl)vinyl)thiazol-2-yl)-1-(pyridin-4-ylmethyl)-1H-pyrrole-2-carboxamide] | 0.189 | 1.53 | 4.13 | 4.1 | 0.074 | 0.554 |  |  |
| O=C(Nc1nc(C2CCC(c3ccccc3)CC2)cs1)c1cccn1Cc1ccncc1 (stereo not drawn) [Compound A255] | 0.25 | 1.33 | 18.1 | 7.21 | 0.102 | 0.477 |  |  |
| CC(C)OC(C)(C)c1csc(NC(=O)c2cccn2Cc2c(F)cncc2F)n1 [Compound A256, 1-((3,5-difluoropyridin-4-yl)methyl)-N-(4-(2-isopropoxypropan-2-yl)thiazol-2-yl)-1H-pyrrole-2-carboxamide] | 4.04 | > 25 | > 25 | > 25 | 2.15 | 2.87 |  |  |
| CC(C)(OCc1ccccn1)c1csc(NC(=O)c2cccn2Cc2ccncc2)n1 [Compound A257] | 4.01 | 24.8 | > 25 | > 25 | 1.88 | 3.63 |  |  |
| O=C(Nc1nc(C2=CCN(c3ccccc3)CC2)cs1)c1cccn1Cc1ccncc1 [Compound A258] | 6.4 | > 25 | > 25 | 23.8 | 0.701 | 14.5 |  |  |
| O=C(Nc1nc(C2=CCN(Cc3ccccc3)CC2)cs1)c1cccn1Cc1ccncc1 [Compound A259] | 7.11 | > 25 |  |  | 0.516 | 10.5 | > 25 | > 25 |
| CC(C)(COc1ccccn1)c1csc(NC(=O)c2cccn2Cc2ccncc2)n1 [Compound A260] | 0.974 | 4.61 | > 25 | 10.9 | 0.478 | 0.95 |  |  |
| O=C(Nc1nc(N2CCC(c3ccccc3)CC2)cs1)c1cccn1Cc1ccncc1 [Compound A261] | 2.02 | > 25 | > 25 | > 25 | 2.25 | > 25 |  |  |
| CC(C)(CCc1ccccn1)c1csc(NC(=O)c2cccn2Cc2ccncc2)n1 [Compound A262] | 3.14 | 24.2 | > 25 | > 25 | 1.46 | 3.12 |  |  |
| O=C(Nc1nc(C2(OCc3ccccc3)CC2)cs1)c1cccn1Cc1ccncc1 [Compound A263, N-(4-(1-(benzyloxy)cyclopropyl)thiazol-2-yl)-1-(pyridin-4-ylmethyl)-1H-pyrrole-2-carboxamide] | 0.958 | 5.22 | > 25 | 21.5 | 0.381 | 1.04 |  |  |
| O=C(Nc1nc(N2CCCCC2)cs1)c1cccn1Cc1ccncc1 [Compound A264] | > 25 | > 25 | > 25 | > 25 | > 25 | > 25 |  |  |
| O=C(Nc1nc(N2CCCC(c3ccccc3)C2)cs1)c1cccn1Cc1ccncc1 (stereo not drawn) [Compound A265] | > 25 | > 25 | > 25 | > 25 | 9.06 | 7.3 |  |  |
| O=C(Nc1nc(N2CCN(c3ccccc3)CC2)cs1)c1cccn1Cc1ccncc1 [Compound A266] | 9 | > 25 | > 25 | > 25 | 6.25 | > 25 |  |  |
| O=C(Nc1nc(N2CCc3ccccc3C2)cs1)c1cccn1Cc1ccncc1 [Compound A267] | > 25 | > 25 | > 25 | > 25 | 15.4 | > 25 |  |  |
| O=C(Nc1nc(C2CC(c3ccccc3)C2)cs1)c1cccn1Cc1ccncc1 (stereo not drawn) [Compound A268] | 0.129 | 0.821 | > 25 | 7.29 | 0.052 | 0.291 |  |  |
| COc1ccc(/C=C/c2csc(NC(=O)c3cccn3Cc3ccncc3)n2)nc1 [Compound A269, N-(4-(2-(5-methoxypyridin-2-yl)vinyl)thiazol-2-yl)-1-(pyridin-4-ylmethyl)-1H-pyrrole-2-carboxamide] | 1.57 | 20.3 | > 25 | > 21.6 | 0.013 | 2.92 |  |  |
| O=C(Nc1nc([C@H]2CCC[C@@H](c3ccccc3)C2)cs1)c1cccn1Cc1ccncc1 [Compound A270] | 0.463 | 1.74 | > 25 | 10.4 | 0.161 | 0.599 |  |  |
| O=C(Nc1nc([C@@H]2CCC[C@@H](c3ccccc3)C2)cs1)c1cccn1Cc1ccncc1 [Compound A271] | 0.912 | 2.87 | > 25 | 15.5 | 0.316 | 0.951 |  |  |
| O=C(Nc1nc(/C=C/c2ccc3c(n2)OCO3)cs1)c1cccn1Cc1ccncc1 [Compound A272] | 1.72 | > 25 | > 25 | > 25 | 0.261 | > 25 |  |  |
| O=C(Nc1nc(N2CCC(c3ccccc3)C2)cs1)c1cccn1Cc1ccncc1 (stereo not drawn) [Compound A273] | > 25 | > 25 | > 25 | > 25 | > 25 | > 25 |  |  |
| O=C(Nc1nc(/C=C/c2cnc3c(c2)OCO3)cs1)c1cccn1Cc1ccncc1 [Compound A274] | 2.55 | 22.3 | > 25 | 23.9 | 0.363 | 3.74 |  |  |
| O=C(Nc1nc([C@H]2CCCN2c2ccccc2)cs1)c1cccn1Cc1ccncc1 [Compound A275] | 0.032 | 0.147 | > 25 | 1.47 | 0.015 | 0.029 |  |  |
| O=C(Nc1nc([C@@H]2CCCN2c2ccccc2)cs1)c1cccn1Cc1ccncc1 [Compound A276] | 0.859 | 2.47 | > 25.8 | 19.4 | 0.287 | 1.5 |  |  |
| O=C(Nc1nc([C@@H]2CCCN2Cc2ccccc2)cs1)c1cccn1Cc1ccncc1 [Compound A277] | 0.819 | 4.06 | > 25 | 18.7 | 0.325 | 0.769 |  |  |
| O=C(Nc1nc([C@H]2CCCN2Cc2ccccc2)cs1)c1cccn1Cc1ccncc1 [Compound A278] | 1.13 | 5 | > 25 | > 23.9 | 0.538 | 1.27 |  |  |
| O=C(Nc1nc([C@H]2CCN(Cc3ccccc3)C2)cs1)c1cccn1Cc1ccncc1 [Compound A279] | 4.2 | > 25 | > 25 | > 25 | 1.14 | 4.97 |  |  |
| CC(C)OC(C)(C)c1csc(NC(=O)c2ccccc2Cc2ccncc2)n1 [Compound A280, N-(4-(2-isopropoxypropan-2-yl)thiazol-2-yl)-2-(pyridin-4-ylmethyl)benzamide] | > 25 | > 25 | > 25 | > 25 | 12.7 | > 25 |  |  |
